Source: patent publication US20240415914A1, “Water Dispersible Cannabinoid Compositions” (priority 2021, published 2024)

Assay: Stability of cannabinoid and Vitamin E components of Beverage 1 (AB White) stored at 8° C. and 21-25° C., LCMSMS over 570 days
Type: physicochemical
Conditions: for Stability in AB White, 8° C. (content by LCMSMS): beverage stored at 8° C.; for Stability in AB White, 21-25° C. (content by LCMSMS): beverage stored at 21-25° C.
Description: The LCMSMS was calibrated for 0-1000 ng/ml cannabinoids with the same resin material used in the preparation of the concentrates. At each time period, 100 ml of beverage was diluted with 10 ml of methanol and injected into the LCMSMS for analysis.

Compound: CCCCCc1cc(O)c2c(c1)OC1(C)CCC3C1C2C3(C)C (centres unmarked) [CBL, cannabicyclol]
- Stability in AB White, 8° C. (content by LCMSMS) (day 0): 0.550 µg/mL
- Stability in AB White, 8° C. (content by LCMSMS) (day 1): 0.541 µg/mL
- Stability in AB White, 8° C. (content by LCMSMS) (day 2): 0.542 µg/mL
- Stability in AB White, 8° C. (content by LCMSMS) (day 3): 0.553 µg/mL
- Stability in AB White, 8° C. (content by LCMSMS) (day 5): 0.552 µg/mL
- Stability in AB White, 8° C. (content by LCMSMS) (day 8): 0.537 µg/mL
- Stability in AB White, 8° C. (content by LCMSMS) (day 9): 0.535 µg/mL
- Stability in AB White, 8° C. (content by LCMSMS) (day 10): 0.544 µg/mL
- Stability in AB White, 8° C. (content by LCMSMS) (day 11): 0.544 µg/mL
- Stability in AB White, 8° C. (content by LCMSMS) (day 12): 0.553 µg/mL
- Stability in AB White, 8° C. (content by LCMSMS) (day 15): 0.534 µg/mL
- Stability in AB White, 8° C. (content by LCMSMS) (day 16): 0.546 µg/mL
- Stability in AB White, 8° C. (content by LCMSMS) (day 17): 0.540 µg/mL
- Stability in AB White, 8° C. (content by LCMSMS) (day 18): 0.536 µg/mL
- Stability in AB White, 8° C. (content by LCMSMS) (day 19): 0.537 µg/mL
- Stability in AB White, 8° C. (content by LCMSMS) (day 22): 0.555 µg/mL
- Stability in AB White, 8° C. (content by LCMSMS) (day 23): 0.545 µg/mL
- Stability in AB White, 8° C. (content by LCMSMS) (day 24): 0.548 µg/mL
- Stability in AB White, 8° C. (content by LCMSMS) (day 25): 0.540 µg/mL
- Stability in AB White, 8° C. (content by LCMSMS) (day 26): 0.534 µg/mL
- Stability in AB White, 8° C. (content by LCMSMS) (day 29): 0.547 µg/mL
- Stability in AB White, 8° C. (content by LCMSMS) (day 30): 0.544 µg/mL
- Stability in AB White, 8° C. (content by LCMSMS) (day 60): 0.543 µg/mL
- Stability in AB White, 8° C. (content by LCMSMS) (day 90): 0.527 µg/mL
- Stability in AB White, 8° C. (content by LCMSMS) (day 120): 0.534 µg/mL
- Stability in AB White, 8° C. (content by LCMSMS) (day 150): 0.540 µg/mL
- Stability in AB White, 8° C. (content by LCMSMS) (day 180): 0.542 µg/mL
- Stability in AB White, 8° C. (content by LCMSMS) (day 210): 0.534 µg/mL
- Stability in AB White, 8° C. (content by LCMSMS) (day 240): 0.535 µg/mL
- Stability in AB White, 8° C. (content by LCMSMS) (day 270): 0.539 µg/mL
- Stability in AB White, 8° C. (content by LCMSMS) (day 300): 0.526 µg/mL
- Stability in AB White, 8° C. (content by LCMSMS) (day 330): 0.543 µg/mL
- Stability in AB White, 8° C. (content by LCMSMS) (day 360): 0.533 µg/mL
- Stability in AB White, 8° C. (content by LCMSMS) (day 390): 0.535 µg/mL
- Stability in AB White, 8° C. (content by LCMSMS) (day 420): 0.526 µg/mL
- Stability in AB White, 8° C. (content by LCMSMS) (day 450): 0.532 µg/mL
- Stability in AB White, 8° C. (content by LCMSMS) (day 480): 0.521 µg/mL
- Stability in AB White, 8° C. (content by LCMSMS) (day 510): 0.514 µg/mL
- Stability in AB White, 8° C. (content by LCMSMS) (day 540): 0.514 µg/mL
- Stability in AB White, 8° C. (content by LCMSMS) (day 570): 0.503 µg/mL
- Stability in AB White, 21-25° C. (content by LCMSMS) (day 0): 0.550 µg/mL
- Stability in AB White, 21-25° C. (content by LCMSMS) (day 1): 0.539 µg/mL
- Stability in AB White, 21-25° C. (content by LCMSMS) (day 2): 0.540 µg/mL
- Stability in AB White, 21-25° C. (content by LCMSMS) (day 3): 0.543 µg/mL
- Stability in AB White, 21-25° C. (content by LCMSMS) (day 5): 0.530 µg/mL
- Stability in AB White, 21-25° C. (content by LCMSMS) (day 8): 0.542 µg/mL
- Stability in AB White, 21-25° C. (content by LCMSMS) (day 9): 0.535 µg/mL
- Stability in AB White, 21-25° C. (content by LCMSMS) (day 10): 0.546 µg/mL
- Stability in AB White, 21-25° C. (content by LCMSMS) (day 11): 0.552 µg/mL
- Stability in AB White, 21-25° C. (content by LCMSMS) (day 12): 0.529 µg/mL
- Stability in AB White, 21-25° C. (content by LCMSMS) (day 15): 0.548 µg/mL
- Stability in AB White, 21-25° C. (content by LCMSMS) (day 16): 0.537 µg/mL
- Stability in AB White, 21-25° C. (content by LCMSMS) (day 17): 0.554 µg/mL
- Stability in AB White, 21-25° C. (content by LCMSMS) (day 18): 0.554 µg/mL
- Stability in AB White, 21-25° C. (content by LCMSMS) (day 19): 0.552 µg/mL
- Stability in AB White, 21-25° C. (content by LCMSMS) (day 22): 0.547 µg/mL
- Stability in AB White, 21-25° C. (content by LCMSMS) (day 23): 0.530 µg/mL
- Stability in AB White, 21-25° C. (content by LCMSMS) (day 24): 0.546 µg/mL
- Stability in AB White, 21-25° C. (content by LCMSMS) (day 25): 0.532 µg/mL
- Stability in AB White, 21-25° C. (content by LCMSMS) (day 26): 0.549 µg/mL
- Stability in AB White, 21-25° C. (content by LCMSMS) (day 29): 0.552 µg/mL
- Stability in AB White, 21-25° C. (content by LCMSMS) (day 30): 0.543 µg/mL
- Stability in AB White, 21-25° C. (content by LCMSMS) (day 60): 0.544 µg/mL
- Stability in AB White, 21-25° C. (content by LCMSMS) (day 90): 0.541 µg/mL
- Stability in AB White, 21-25° C. (content by LCMSMS) (day 120): 0.516 µg/mL
- Stability in AB White, 21-25° C. (content by LCMSMS) (day 150): 0.517 µg/mL
- Stability in AB White, 21-25° C. (content by LCMSMS) (day 180): 0.527 µg/mL
- Stability in AB White, 21-25° C. (content by LCMSMS) (day 210): 0.514 µg/mL
- Stability in AB White, 21-25° C. (content by LCMSMS) (day 240): 0.515 µg/mL
- Stability in AB White, 21-25° C. (content by LCMSMS) (day 270): 0.535 µg/mL
- Stability in AB White, 21-25° C. (content by LCMSMS) (day 300): 0.532 µg/mL
- Stability in AB White, 21-25° C. (content by LCMSMS) (day 330): 0.526 µg/mL
- Stability in AB White, 21-25° C. (content by LCMSMS) (day 360): 0.526 µg/mL
- Stability in AB White, 21-25° C. (content by LCMSMS) (day 390): 0.518 µg/mL
- Stability in AB White, 21-25° C. (content by LCMSMS) (day 420): 0.523 µg/mL
- Stability in AB White, 21-25° C. (content by LCMSMS) (day 450): 0.521 µg/mL
- Stability in AB White, 21-25° C. (content by LCMSMS) (day 480): 0.510 µg/mL
- Stability in AB White, 21-25° C. (content by LCMSMS) (day 510): 0.503 µg/mL
- Stability in AB White, 21-25° C. (content by LCMSMS) (day 540): 0.510 µg/mL
- Stability in AB White, 21-25° C. (content by LCMSMS) (day 570): 0.505 µg/mL
